Source: ChEMBL document CHEMBL4610109, “Targeting Orthosteric and Allosteric Pockets of Aromatase via Dual-Mode Novel Azole Inhibitors” (ACS Med Chem Lett, 2020)

Assays:
[1] = tested on: MDA-MB-231; assay: Growth inhibition of human ER-negative MDA-MB-231 cells incubated for 72 hrs by cell counter method; type: functional; details: MDA-MB-231, 72 h
[2] = tested on: MCF7; assay: Growth inhibition of human ER-positive MCF7 cells incubated for 72 hrs by cell counter method; type: functional; details: MCF7, 72 h
[3] = biological target: T1, Aromatase (Homo sapiens, UniProt P11511); assay: Inhibition of recombinant human aromatase preincubated for 10 mins followed by substrate and beta-NADP+ addition and measured for 60 mins by fluorescence based assay
T1 sequence (P11511 whole entry): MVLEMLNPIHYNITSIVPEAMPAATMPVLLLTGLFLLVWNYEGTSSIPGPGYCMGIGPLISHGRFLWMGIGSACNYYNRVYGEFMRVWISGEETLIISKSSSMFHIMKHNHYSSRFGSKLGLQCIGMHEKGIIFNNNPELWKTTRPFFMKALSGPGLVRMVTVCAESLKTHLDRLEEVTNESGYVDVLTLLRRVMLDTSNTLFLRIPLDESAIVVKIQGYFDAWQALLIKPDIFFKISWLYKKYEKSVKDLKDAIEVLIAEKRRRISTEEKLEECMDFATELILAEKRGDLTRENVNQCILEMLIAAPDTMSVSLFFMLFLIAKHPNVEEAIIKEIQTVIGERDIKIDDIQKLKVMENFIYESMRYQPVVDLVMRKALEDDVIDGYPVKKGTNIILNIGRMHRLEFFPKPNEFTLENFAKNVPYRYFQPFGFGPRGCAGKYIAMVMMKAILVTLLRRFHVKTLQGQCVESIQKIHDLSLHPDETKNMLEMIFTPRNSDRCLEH

Row | Compound | GI50 [1] | GI50 [2] | IC50 [3]
1 | N#Cc1ccc(C(c2ccc(C#N)cc2)n2cncn2)cc1 [LETROZOLE] | 34 µM | – | –
2 | O=c1c2ccccc2oc2c(Cn3ccnc3)cccc12 | 58.3 µM | 69.1 µM | –
3 | O=c1c2ccccc2oc2cccc(Cn3ccnc3)c12 | 44.3 µM | 59 µM | –
4 | CCC#CCOc1cc(Cn2ccnc2)c2oc3ccccc3c(=O)c2c1 | 21.1 µM | 52.3 µM | 5.55 µM
5 | CCC#CCOc1ccc2c(=O)c3ccc(Cn4ccnc4)cc3oc2c1 | > 100 µM | > 100 µM | 0.77 µM
6 | CCC#CCOc1cc(Cn2ccnc2)c2c(=O)c3ccccc3oc2c1 | 17.5 µM | 6.3 µM | 2.85 µM
7 | O=c1c2ccccc2oc2cc(Cn3ccnc3)ccc12 | 30.4 µM | 19.9 µM | –
